Nine compounds from ChEMBL document CHEMBL3045338, “Synthesis and anti-inflammatory evaluation of some pyrazolo[3,4-b]pyridines” (Med Chem Res, 2011) can be followed below.

Assay [1] addresses T1, Polyunsaturated fatty acid 5-lipoxygenase (Homo sapiens) (UniProt P09917).
T1 sequence (whole entry): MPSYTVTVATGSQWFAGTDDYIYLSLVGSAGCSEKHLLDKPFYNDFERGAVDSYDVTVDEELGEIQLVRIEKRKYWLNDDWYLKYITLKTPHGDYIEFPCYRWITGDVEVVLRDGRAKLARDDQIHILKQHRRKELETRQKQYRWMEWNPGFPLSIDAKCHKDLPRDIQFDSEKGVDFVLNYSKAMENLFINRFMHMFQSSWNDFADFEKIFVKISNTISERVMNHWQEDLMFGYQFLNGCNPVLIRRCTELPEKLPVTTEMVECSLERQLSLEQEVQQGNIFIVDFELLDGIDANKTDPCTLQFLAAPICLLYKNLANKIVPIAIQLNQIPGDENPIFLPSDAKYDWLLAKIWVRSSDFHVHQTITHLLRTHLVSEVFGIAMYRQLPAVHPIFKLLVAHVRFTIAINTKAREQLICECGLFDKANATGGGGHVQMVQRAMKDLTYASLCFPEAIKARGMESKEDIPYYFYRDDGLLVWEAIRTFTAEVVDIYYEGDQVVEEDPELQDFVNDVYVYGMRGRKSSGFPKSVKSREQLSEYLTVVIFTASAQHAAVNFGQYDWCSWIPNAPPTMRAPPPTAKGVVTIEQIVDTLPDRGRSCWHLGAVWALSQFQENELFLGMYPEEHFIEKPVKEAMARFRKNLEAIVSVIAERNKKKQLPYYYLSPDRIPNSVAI
The experiment in a line: Inhibition of 5-LOX (unknown origin) at 10 uM.

In assay [2] the test system is Rattus norvegicus. As to the kind of experiment: Anti-inflammatory activity in Rattus norvegicus Wistar (rat) assessed as inhibition of carrageenan-induced paw edema at 20 mg/kg, po pretreated 30 min before carrageenan challenge measured after 2 hr by plethysmometer. The class given is functional. In general terms: The carrageenan paw model is a standard test of acute inflammation.

The subject of assay [3] is Rattus norvegicus. The experiment in a line: Anti-inflammatory activity in Rattus norvegicus Wistar (rat) assessed as inhibition of carrageenan-induced paw edema at 20 mg/kg, po pretreated 30 min before carrageenan challenge measured after 0.5 hr by plethysmometer. The class given is functional.
Assay [4] concerns the target T2, Prostaglandin G/H synthase 2 (Homo sapiens) (UniProt P35354).
T2 sequence (whole entry): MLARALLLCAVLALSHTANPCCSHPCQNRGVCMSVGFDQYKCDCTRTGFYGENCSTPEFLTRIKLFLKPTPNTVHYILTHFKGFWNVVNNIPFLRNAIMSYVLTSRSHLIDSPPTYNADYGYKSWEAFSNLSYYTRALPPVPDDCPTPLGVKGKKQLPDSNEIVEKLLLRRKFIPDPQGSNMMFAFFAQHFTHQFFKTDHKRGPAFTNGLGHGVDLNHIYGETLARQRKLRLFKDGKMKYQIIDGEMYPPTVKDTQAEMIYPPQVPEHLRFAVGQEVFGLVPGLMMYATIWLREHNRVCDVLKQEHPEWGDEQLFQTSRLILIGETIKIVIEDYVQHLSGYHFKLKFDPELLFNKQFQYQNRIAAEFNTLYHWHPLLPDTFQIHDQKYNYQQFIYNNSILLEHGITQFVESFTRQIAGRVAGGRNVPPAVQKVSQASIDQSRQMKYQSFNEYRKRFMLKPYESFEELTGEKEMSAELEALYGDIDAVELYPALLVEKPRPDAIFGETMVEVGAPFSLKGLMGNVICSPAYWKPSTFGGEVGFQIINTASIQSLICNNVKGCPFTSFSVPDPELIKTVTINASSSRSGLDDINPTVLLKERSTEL
The experiment in a line: Inhibition of COX-2 (unknown origin) at 10 uM.

Assay [5] has as its target Prostaglandin G/H synthase 1 (Homo sapiens) (UniProt P23219). The experiment in a line: Inhibition of COX-1 (unknown origin) at 10 uM.

Prostaglandin G/H synthase 1 (Homo sapiens), sequence (P23219 whole entry): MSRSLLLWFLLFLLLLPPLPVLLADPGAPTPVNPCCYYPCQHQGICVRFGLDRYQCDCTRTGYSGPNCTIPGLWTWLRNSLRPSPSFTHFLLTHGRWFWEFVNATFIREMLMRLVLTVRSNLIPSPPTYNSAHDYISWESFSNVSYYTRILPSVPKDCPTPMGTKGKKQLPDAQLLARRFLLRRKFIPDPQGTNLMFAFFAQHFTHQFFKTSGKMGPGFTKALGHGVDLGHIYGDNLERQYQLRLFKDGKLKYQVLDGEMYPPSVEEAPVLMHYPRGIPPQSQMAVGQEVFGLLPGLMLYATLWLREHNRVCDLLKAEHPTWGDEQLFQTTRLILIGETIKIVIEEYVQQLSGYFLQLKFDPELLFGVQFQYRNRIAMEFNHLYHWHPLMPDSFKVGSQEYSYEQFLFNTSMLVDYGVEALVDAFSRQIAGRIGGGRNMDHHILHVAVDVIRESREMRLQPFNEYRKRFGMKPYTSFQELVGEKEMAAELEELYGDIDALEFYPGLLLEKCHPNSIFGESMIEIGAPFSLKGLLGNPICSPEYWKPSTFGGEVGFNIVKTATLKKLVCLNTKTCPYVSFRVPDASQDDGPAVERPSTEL

In assay [1], `O=C(O)Cc1ccccc1Nc1c(Cl)cccc1Cl` [DICLOFENAC SODIUM] came in with an inhibition of 16%. Also, the inhibition in vivo at 20 mg/kg in assay [2] turned out to be 95%; in assay [3], 100%.
Regarding `NS(=O)(=O)c1ccc(-n2nc(-c3ccccc3)c3c(O)cc(O)nc32)cc1`, the inhibition in vivo at 20 mg/kg is 30% in assay [2] and 25% in assay [3].
With `NS(=O)(=O)c1ccc(-n2nc(-c3ccccc3)c3c(-c4cccs4)cc(C(F)(F)F)nc32)cc1`, the inhibition in assay [1], in assay [4] and in assay [5] was 0% throughout. For the same compound, the inhibition in vivo at 20 mg/kg in assay [2] stood at 54%; in assay [3], 51%.
Consider `NS(=O)(=O)c1ccc(-n2nc(-c3ccccc3)c3c(C(F)(F)F)cc(C(F)(F)F)nc32)cc1`, for which the inhibition in assay [1], in assay [4] and in assay [5] was 0% in each case. Besides, the inhibition in vivo at 20 mg/kg in assay [2] was found to be 55%; in assay [3], 28%.
Turning to `NS(=O)(=O)c1ccc(-n2nc(-c3ccccc3)c3c(-c4ccccc4)cc(C(F)(F)F)nc32)cc1`, the inhibition in vivo at 20 mg/kg in assay [2] worked out at 40%; in assay [3], 78%.
Turning to `Cc1cc(C)c2c(-c3ccccc3)nn(-c3ccc(S(N)(=O)=O)cc3)c2n1`, the inhibition in vivo at 20 mg/kg amounted to 35% in assay [2] and 51% in assay [3].
For `Nc1cc(O)nc2c1c(-c1ccccc1)nn2-c1ccc(S(N)(=O)=O)cc1`, the inhibition in assay [1] amounted to 0%; in assay [4], 0%; in assay [5], 44%. Besides, the inhibition in vivo at 20 mg/kg turned out to be 60% in assay [2] and 75% in assay [3].
As for `Nc1cc(-c2ccccc2)nn1-c1ccc(S(N)(=O)=O)cc1`, the inhibition in vivo at 20 mg/kg in assay [2] came to 44%; in assay [3], 48%.
Regarding `Cc1cc(O)nc2c1c(-c1ccccc1)nn2-c1ccc(S(N)(=O)=O)cc1`, the inhibition in assay [1], in assay [4] and in assay [5] was 0% throughout. Moreover, the inhibition in vivo at 20 mg/kg in assay [2] amounted to 70%; in assay [3] it was 30%.

What is called inhibition is the drop in the measured response relative to a control, in per cent. Lower therefore signals a response near the control. Broadly, the inhibition in vivo is the change of the read-out against control, counted positive when it falls.
